Experimental data: the supplement of paper PMC10627819

How the values were obtained:
Experiment in all cases: Bliss interaction score (quartile over a dose matrix) (fitness difference); higher = more antagonism (negative = synergy)
B. subtilis 168 = tested on: B. subtilis 168
In short: (§1)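 Growth in each well was taken as OD595 at entry into stationary phase. Dividing by the plate's robust no-drug mean and capping at 1 gave fitness, and single-drug fitness was inferred from the combination data. The Bliss score, observed minus product-expected fitness, is summarised by quartiles over technical, biological and donor/recipient replicates.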

S. aureus DSM 20231 = tested on: S. aureus DSM 20231
In short: as §1

S. aureus Newman = tested on: S. aureus Newman
In short: as §1

S. pneumoniae D39V = tested on: S. pneumoniae D39V
In short: as §1
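Also: first quartile when negative (synergy) and third quartile when positive (antagonism).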

| SMILES | Bliss interaction score (B. subtilis 168) | Bliss interaction score (S. aureus DSM 20231) | Bliss interaction score (S. aureus Newman) | Bliss interaction score (S. pneumoniae D39V) |
| --- | --- | --- | --- | --- |
| CC1(C)S[C@@H]2[C@H](NC(=O)[C@H](N)c3ccc(O)cc3)C(=O)N2[C@H]1C(=O)O [Amoxicillin] + C1=CC(=CC(=C1)Cl)NN=C(C#N)C#N [CCCP] | 0.115 | -0.0295 | -0.0504 | -0.0978 |
| CC1(C)S[C@@H]2[C@H](NC(=O)[C@H](N)c3ccc(O)cc3)C(=O)N2[C@H]1C(=O)O [Amoxicillin] + CC1(C)S[C@@H]2[C@H](NC(=O)Cc3ccccc3)C(=O)N2[C@H]1C(=O)O [PenicillinG] | -0.186 | -0.0644 | 0.0595 | -0.0781 |
| CC1(C)S[C@@H]2[C@H](NC(=O)[C@H](N)c3ccc(O)cc3)C(=O)N2[C@H]1C(=O)O [Amoxicillin] + CC(=O)O[C@H]1C[C@@]2(C)[C@@H](C[C@@H](O)[C@H]3[C@@]4(C)CC[C@@H](O)[C@@H](C)[C@@H]4CC[C@@]32C)/C1=C(\CCC=C(C)C)C(=O)O [Fusidic acid] | 0.0608 | 0.0361 | -0.0375 | 0.143 |
| CC1(C)S[C@@H]2[C@H](NC(=O)[C@H](N)c3ccc(O)cc3)C(=O)N2[C@H]1C(=O)O [Amoxicillin] + CCP(CC)CC.CC(=O)OC[C@@H]1[C@H]([C@@H]([C@H]([C@@H](O1)[S-])OC(=O)C)OC(=O)C)OC(=O)C.[Au+] [Auranofin] | -0.0508 | 0.0373 | -0.0817 | 0.178 |
| CC1(C)S[C@@H]2[C@H](NC(=O)[C@H](N)c3ccc(O)cc3)C(=O)N2[C@H]1C(=O)O [Amoxicillin] + CC[C@H]1OC(=O)[C@H](C)C(=O)[C@H](C)[C@@H](O[C@@H]2O[C@H](C)C[C@H](N(C)C)[C@H]2O)[C@](C)(OC)C[C@@H](C)C(=O)[C@H](C)[C@H]2N(CCCCn3cnc(-c4cccnc4)c3)C(=O)O[C@]12C [Telithromycin] | -0.0851 | -0.0292 | -0.0609 | 0.0336 |
| CC1(C)S[C@@H]2[C@H](NC(=O)[C@H](N)c3ccc(O)cc3)C(=O)N2[C@H]1C(=O)O [Amoxicillin] + CC[C@H]1OC(=O)[C@H](C)[C@@H](O[C@H]2C[C@@](C)(OC)[C@@H](O)[C@H](C)O2)[C@H](C)[C@@H](O[C@@H]2O[C@H](C)C[C@H](N(C)C)[C@H]2O)[C@](C)(O)C[C@@H](C)C(=O)[C@H](C)[C@@H](O)[C@]1(C)O [Erythromycin] | 0.0751 | -0.023 | -0.0553 | 0.0883 |
| CC1(C)S[C@@H]2[C@H](NC(=O)[C@H](N)c3ccc(O)cc3)C(=O)N2[C@H]1C(=O)O [Amoxicillin] + CN(C)[C@@H]1C(O)=C(C(N)=O)C(=O)[C@@]2(O)C(O)=C3C(=O)c4c(O)ccc(Cl)c4[C@@](C)(O)[C@H]3C[C@@H]12 [Clortetracycline] | 0.164 | 0.0294 | -0.0669 | 0.168 |
| CC1(C)S[C@@H]2[C@H](NC(=O)[C@H](N)c3ccc(O)cc3)C(=O)N2[C@H]1C(=O)O [Amoxicillin] + CN[C@H](CC(C)C)C(=O)N[C@H]1C(=O)N[C@@H](CC(N)=O)C(=O)N[C@H]2C(=O)N[C@H]3C(=O)N[C@H](C(=O)N[C@H](C(=O)O)c4cc(O)cc(O)c4-c4cc3ccc4O)[C@H](O[C@H]3C[C@](C)(N)[C@@H](O)[C@H](C)O3)c3ccc(c(Cl)c3)Oc3cc2cc(c3O[C@@H]2O[C@H](CO)[C@@H](O)[C@H](O)[C@H]2O[C@H]2C[C@](C)(NCc3ccc(-c4ccc(Cl)cc4)cc3)[C@@H](O)[C@H](C)O2)Oc2ccc(cc2Cl)[C@H]1O [Oritavancin] | 0.0439 | 0.0659 | 0.131 | -0.0312 |
| CC1(C)S[C@@H]2[C@H](NC(=O)[C@H](N)c3ccc(O)cc3)C(=O)N2[C@H]1C(=O)O [Amoxicillin] + CO[C@@H]1[C@@H](OC(N)=O)[C@@H](O)[C@H](Oc2ccc3c(O)c(NC(=O)c4ccc(O)c(CC=C(C)C)c4)c(=O)oc3c2C)OC1(C)C [Novobiocin] | 0.0931 | 0.0568 | -0.0655 | 0.125 |
| Cc1ccc(-c2cc(C(F)(F)F)nn2-c2ccc(S(N)(=O)=O)cc2)cc1 [Celecoxib] + CC[C@H]1OC(=O)[C@H](C)C(=O)[C@H](C)[C@@H](O[C@@H]2O[C@H](C)C[C@H](N(C)C)[C@H]2O)[C@](C)(OC)C[C@@H](C)C(=O)[C@H](C)[C@H]2N(CCCCn3cnc(-c4cccnc4)c3)C(=O)O[C@]12C [Telithromycin] | – | -0.162 | – | – |
| Cc1ccc(-c2cc(C(F)(F)F)nn2-c2ccc(S(N)(=O)=O)cc2)cc1 [Celecoxib] + CN(C)C(=O)C(CCN1CCC(O)(c2ccc(Cl)cc2)CC1)(c1ccccc1)c1ccccc1 [Loperamide] | – | -0.452 | – | – |
| CCN(CC)C(=O)/C(C#N)=C/c1cc(O)c(O)c([N+](=O)[O-])c1 [Entacapone] + CC(=O)NC[C@H]1CN(c2ccc(N3CCOCC3)c(F)c2)C(=O)O1 [Linezolid] | – | -0.178 | – | – |
| CCN(CC)C(=O)/C(C#N)=C/c1cc(O)c(O)c([N+](=O)[O-])c1 [Entacapone] + CN1C2=CC=CC=C2N=C3C1=CC=CC3=O [Pyocyanin] | – | -0.283 | – | – |
| CCN(CC)C(=O)/C(C#N)=C/c1cc(O)c(O)c([N+](=O)[O-])c1 [Entacapone] + CO[C@@]12[C@H](COC(N)=O)C3=C(C(=O)C(C)=C(N)C3=O)N1C[C@@H]1N[C@@H]12 [MitomycinC] | – | 0.176 | – | – |
| C[C@]12CC[C@@H]3c4ccc(O)cc4CC[C@H]3[C@@H]1CC[C@@H]2O [Estradiol] + CC1(C)S[C@@H]2[C@H](NC(=O)Cc3ccccc3)C(=O)N2[C@H]1C(=O)O [PenicillinG] | – | 0.255 | – | – |
| C[C@]12CC[C@@H]3c4ccc(O)cc4CC[C@H]3[C@@H]1CC[C@@H]2O [Estradiol] + CC[C@H]1OC(=O)[C@H](C)C(=O)[C@H](C)[C@@H](O[C@@H]2O[C@H](C)C[C@H](N(C)C)[C@H]2O)[C@](C)(OC)C[C@@H](C)C(=O)[C@H](C)[C@H]2N(CCCCn3cnc(-c4cccnc4)c3)C(=O)O[C@]12C [Telithromycin] | – | 0.268 | – | – |
| C[C@]12CC[C@@H]3c4ccc(O)cc4CC[C@H]3[C@@H]1CC[C@@H]2O [Estradiol] + CO[C@@]12[C@H](COC(N)=O)C3=C(C(=O)C(C)=C(N)C3=O)N1C[C@@H]1N[C@@H]12 [MitomycinC] | – | 0.179 | – | – |

| SMILES | Bliss interaction score (B. subtilis 168) | Bliss interaction score (S. aureus DSM 20231) | Bliss interaction score (S. aureus Newman) | Bliss interaction score (S. pneumoniae D39V) |
| --- | --- | --- | --- | --- |
| C[C@]12CC[C@@H]3c4ccc(O)cc4CC[C@H]3[C@@H]1CC[C@@H]2O [Estradiol] + COc1cc(Cc2cnc(N)nc2N)cc(OC)c1OC [Trimethoprim] | – | 0.263 | – | – |
| C[C@H]1COc2c(N3CCN(C)CC3)c(F)cc3c(=O)c(C(=O)O)cn1c23 [Levofloxacin] + Cc1c(Cl)cccc1Nc1ccccc1C(=O)O [Tolfenamic] | – | -0.164 | – | – |
| CN(C)C(=O)C(CCN1CCC(O)(c2ccc(Cl)cc2)CC1)(c1ccccc1)c1ccccc1 [Loperamide] + CC(C)(O)c1ccccc1CC[C@@H](SCC1(CC(=O)O)CC1)c1cccc(/C=C/c2ccc3ccc(Cl)cc3n2)c1 [Montelukast] | – | -0.28 | – | – |
| CN(C)C(=O)C(CCN1CCC(O)(c2ccc(Cl)cc2)CC1)(c1ccccc1)c1ccccc1 [Loperamide] + CCCSc1nc(N[C@@H]2C[C@H]2c2ccc(F)c(F)c2)c2nnn([C@@H]3C[C@H](OCCO)[C@@H](O)[C@H]3O)c2n1 [Ticagrelor] | – | -0.453 | – | – |
| CN(C)C(=O)C(CCN1CCC(O)(c2ccc(Cl)cc2)CC1)(c1ccccc1)c1ccccc1 [Loperamide] + CCOC(=O)N1CCC(=C2c3ccc(Cl)cc3CCc3cccnc32)CC1 [Loratadine] | – | -0.278 | – | – |
| CN(C)C(=O)C(CCN1CCC(O)(c2ccc(Cl)cc2)CC1)(c1ccccc1)c1ccccc1 [Loperamide] + CN1CCN(C2=Nc3ccccc3Oc3ccc(Cl)cc32)CC1 [Loxapine] | – | 0.122 | – | – |
| CN(C)C(=O)C(CCN1CCC(O)(c2ccc(Cl)cc2)CC1)(c1ccccc1)c1ccccc1 [Loperamide] + CN(Cc1cnc2nc(N)nc(N)c2n1)c1ccc(C(=O)N[C@@H](CCC(=O)O)C(=O)O)cc1 [Methotrexate] | – | -0.309 | – | – |
| CN(C)C(=O)C(CCN1CCC(O)(c2ccc(Cl)cc2)CC1)(c1ccccc1)c1ccccc1 [Loperamide] + C[C@H]1C[C@@H]2[C@H]([C@@H](O)C[C@@]3(C)[C@H]2CC[C@]3(O)C(=O)CO)[C@@]2(C)C=CC(=O)C=C12 [Methylprednisolone] | – | -0.341 | – | – |
| CN(C)C(=O)C(CCN1CCC(O)(c2ccc(Cl)cc2)CC1)(c1ccccc1)c1ccccc1 [Loperamide] + O=C(O)Cc1cc(I)c(Oc2ccc(O)c(I)c2)c(I)c1 [Tiratricol] | – | 0.751 | – | – |
| CN(C)C(=O)C(CCN1CCC(O)(c2ccc(Cl)cc2)CC1)(c1ccccc1)c1ccccc1 [Loperamide] + O=c1c(O)c(-c2ccc(O)c(O)c2)oc2cc(O)cc(O)c12 [Quercetin] | – | 0.242 | – | – |
| C[C@H]1C[C@@H]2[C@H]([C@@H](O)C[C@@]3(C)[C@H]2CC[C@]3(O)C(=O)CO)[C@@]2(C)C=CC(=O)C=C12 [Methylprednisolone] + CC[C@H]1OC(=O)[C@H](C)C(=O)[C@H](C)[C@@H](O[C@@H]2O[C@H](C)C[C@H](N(C)C)[C@H]2O)[C@](C)(OC)C[C@@H](C)C(=O)[C@H](C)[C@H]2N(CCCCn3cnc(-c4cccnc4)c3)C(=O)O[C@]12C [Telithromycin] | – | -0.356 | – | – |
| CCCSc1nc(N[C@@H]2C[C@H]2c2ccc(F)c(F)c2)c2nnn([C@@H]3C[C@H](OCCO)[C@@H](O)[C@H]3O)c2n1 [Ticagrelor] + CC1=C\[C@@H](O)CC(=O)Cc2nc(co2)C(=O)N2CCC=C2C(=O)O[C@H](C(C)C)[C@H](C)/C=C/C(=O)NC\C=C\1 [Virginiamycin M1] | – | 0.253 | – | – |
| CCCSc1nc(N[C@@H]2C[C@H]2c2ccc(F)c(F)c2)c2nnn([C@@H]3C[C@H](OCCO)[C@@H](O)[C@H]3O)c2n1 [Ticagrelor] + CN(C)c1cc(NC(=O)CNC(C)(C)C)c(O)c2c1C[C@H]1C[C@H]3[C@H](N(C)C)C(O)=C(C(N)=O)C(=O)[C@@]3(O)C(O)=C1C2=O [Tigecycline] | – | 0.216 | – | – |
| CCCSc1nc(N[C@@H]2C[C@H]2c2ccc(F)c(F)c2)c2nnn([C@@H]3C[C@H](OCCO)[C@@H](O)[C@H]3O)c2n1 [Ticagrelor] + CN[C@H](CC(C)C)C(=O)N[C@H]1C(=O)N[C@@H](CC(N)=O)C(=O)N[C@H]2C(=O)N[C@H]3C(=O)N[C@H](C(=O)N[C@H](C(=O)O)c4cc(O)cc(O)c4-c4cc3ccc4O)[C@H](O)c3ccc(c(Cl)c3)Oc3cc2cc(c3O[C@@H]2O[C@H](CO)[C@@H](O)[C@H](O)[C@H]2O[C@H]2C[C@](C)(N)[C@H](O)[C@H](C)O2)Oc2ccc(cc2Cl)[C@H]1O [Vancomycin] | – | 0.257 | – | – |
| CCCSc1nc(N[C@@H]2C[C@H]2c2ccc(F)c(F)c2)c2nnn([C@@H]3C[C@H](OCCO)[C@@H](O)[C@H]3O)c2n1 [Ticagrelor] + COc1cc(Cc2cnc(N)nc2N)cc(OC)c1OC [Trimethoprim] | – | -0.152 | – | – |
| CCCSc1nc(N[C@@H]2C[C@H]2c2ccc(F)c(F)c2)c2nnn([C@@H]3C[C@H](OCCO)[C@@H](O)[C@H]3O)c2n1 [Ticagrelor] + Oc1cc(Cl)ccc1Oc1ccc(Cl)cc1Cl [Triclosan] | – | 0.247 | – | – |
